16 compounds from PubChem BioAssay AID264 (DTP/NCI, 2004) can be followed below.

This assay has as its system nude mice, LX-1 lung xenograft intrarenal, tumor weight T/C. As to the kind of experiment: NCI In Vivo Anticancer Drug Screen. Data for tumor model Human Lung LX-1 Xenograft (intrarenal inoculation) in NU/NU Swiss (nude) mice. As to conditions: endpoint: mean tumor weight change, higher = larger tumour. Summed up: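 Compound-treated mice carrying transplanted tumors were compared with vehicle-treated controls. Tumor size was the measured end point, and the value is the treated-group measurement divided by the control-group measurement (T/C).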
In general terms: In xenograft studies the graft and the host belong to different species.

[1] abbreviates: dose: 150.0 mg/kg/injection, schedule: Q04DX003 (sc), vehicle: Klucel (hydroxypropylcellulose) (HPC).
[2] abbreviates: dose: 600.0 mg/kg/injection, schedule: Q04DX003 (sc), vehicle: Klucel (hydroxypropylcellulose) (HPC).
[3] abbreviates: dose: 100.0 mg/kg/injection, schedule: Q01DX010 (sc), vehicle: Klucel (hydroxypropylcellulose) (HPC).
[4] abbreviates: dose: 300.0 mg/kg/injection, schedule: Q04DX003 (sc), vehicle: saline with Tween-80.
Setting [5] is: dose: 600.0 mg/kg/injection, schedule: Q04DX003 (sc), vehicle: saline with Tween-80.
[6] abbreviates: dose: 1200.0 mg/kg/injection, schedule: Q04DX003 (sc), vehicle: saline with Tween-80.

Several values for one entry are separate records, joined by “and”; a condition that tells them apart may be missing. Equal entries are not always repeated. Inconclusive results are not listed. Numbered stars: 1 amine (or outer) side, 2 acyl side, 3 side chain; on linkers, the order of the positions; unused ones are H or OH. Square brackets hold non-standard residues; d marks the D form. Peptide text beside a SMILES is read from it. * marks the point of attachment. X2 = CCC(=O)CC1CC(C)CC(C(=O)[*:2])N1[*:1]; X1 = CCCCCCCCC(C)C(=O)*; Aib = CC(C)(N)C(=O)O; X3 = CC(CN(C)CCO)N*

`Nc1nc([Se])c2ncn(C3OC(CO)C(O)C3O)c2n1` (stereo not given): the T/C by setting is: (dose: 1.0 mg/kg/injection, schedule: Q01DX010 (sc), vehicle: saline) 264 % of control; (dose: 2.0 mg/kg/injection, schedule: Q01DX010 (ip), vehicle: saline) 46 % of control; (dose: 4.0 mg/kg/injection, schedule: Q01DX010 (ip), vehicle: saline) 31 % of control; (dose: 6.66 mg/kg/injection, schedule: Q04DX003 (ip), vehicle: saline) 82 % of control; (dose: 6.66 mg/kg/injection, schedule: Q04DX003 (sc), vehicle: saline) 45 % of control; (dose: 8.0 mg/kg/injection, schedule: Q01DX010 (ip), vehicle: saline) 41 % of control. Besides, the T/C is, setting by setting: (dose: 13.33 mg/kg/injection, schedule: Q04DX003 (ip), vehicle: saline) 121 % of control; (dose: 13.33 mg/kg/injection, schedule: Q04DX003 (sc), vehicle: saline) 62 % of control; (dose: 16.0 mg/kg/injection, schedule: Q01DX010 (ip), vehicle: saline) 61 % of control; (dose: 16.0 mg/kg/injection, schedule: Q01DX010 (sc), vehicle: saline) 35 % of control; (dose: 26.65 mg/kg/injection, schedule: Q04DX003 (ip), vehicle: saline) 91 % of control; (dose: 26.65 mg/kg/injection, schedule: Q04DX003 (sc), vehicle: saline) 95 % of control. Moreover, the T/C (dose: 53.3 mg/kg/injection, schedule: Q04DX003 (ip), vehicle: saline) is 44 % of control.
With `CC(C)(C)c1ccc(CN2CCN(C(c3ccccc3)c3ccc(Cl)cc3)CC2)cc1` (stereo not given), the T/C is, setting by setting: (dose: 37.5 mg/kg/injection, schedule: Q04DX003 (sc), vehicle: Klucel (hydroxypropylcellulose) (HPC)) 79 % of control; (dose: 75.0 mg/kg/injection, schedule: Q04DX003 (sc), vehicle: Klucel (hydroxypropylcellulose) (HPC)) 63 % of control; under setting [1], 71 % of control; under setting [2], 63 % of control; (dose: 1200.0 mg/kg/injection, schedule: Q04DX003 (sc), vehicle: Klucel (hydroxypropylcellulose) (HPC)) 78 % of control; (dose: 2400.0 mg/kg/injection, schedule: Q04DX003 (sc), vehicle: Klucel (hydroxypropylcellulose) (HPC)) 62 % of control.
In the case of `Nc1n[n+](-c2ccc(Cl)cc2)no1`, the T/C reads like this: (dose: 25.0 mg/kg/injection, schedule: Q04DX003 (sc), vehicle: water) 102 % of control; (dose: 100.0 mg/kg/injection, schedule: Q04DX003 (sc), vehicle: water) 95 % of control.
Consider `CCOC(=O)Nc1cc2c(c(N)n1)N=C(CN(C)c1ccccc1)CN2`, for which the T/C is 166 % of control (dose: 12.5 mg/kg/injection, schedule: Q01DX010 (sc), vehicle: Klucel (hydroxypropylcellulose) (HPC)); 186 % of control (dose: 25.0 mg/kg/injection, schedule: Q01DX010 (sc), vehicle: Klucel (hydroxypropylcellulose) (HPC)); 103 % of control under setting [3].
With `COc1cccc2c1C(=O)c1c(O)c3c(c(O)c1C2=O)C[C@@](O)(C(C)=O)C[C@@H]3OC1CC(N(C)C)C(O)C(C)O1` (stereo not given in full), the T/C is, setting by setting: (dose: 2.0 mg/kg/injection, schedule: Q01DX010 (sc), vehicle: water) 200 % of control; (dose: 4.0 mg/kg/injection, schedule: Q01DX010 (sc), vehicle: water) 80 % of control; (dose: 6.0 mg/kg/injection, schedule: Q04DX003 (sc), vehicle: water) 59 % of control; (dose: 12.0 mg/kg/injection, schedule: Q04DX003 (sc), vehicle: water) 88 % of control.
With `COc1cccc2c1C(=O)c1c(O)c3c(c(O)c1C2=O)C[C@@](O)(/C(C)=N/NC(=O)c1cccc([N+](=O)[O-])c1)C[C@@H]3OC1CC(N)C(O)C(C)O1` (stereo not given in full), the T/C (dose: 8.0 mg/kg/injection, schedule: Q01DX010 (sc), vehicle: water) was 68 % of control; the T/C (dose: 16.0 mg/kg/injection, schedule: Q01DX010 (sc), vehicle: water) was 78 % of control; the T/C (dose: 24.0 mg/kg/injection, schedule: Q04DX003 (sc), vehicle: water) is 54 % of control; the T/C (dose: 48.0 mg/kg/injection, schedule: Q04DX003 (sc), vehicle: water) is 9 % of control; the T/C (dose: 96.0 mg/kg/injection, schedule: Q04DX003 (sc), vehicle: water) is 25 % of control.
Take `COc1cc(NCCCCCCCNC(C)C)c2nccc(C)c2c1`: the T/C was 105 % of control (dose: 37.5 mg/kg/injection, schedule: Q04DX003 (sc), vehicle: saline) and 87 % of control (dose: 150.0 mg/kg/injection, schedule: Q04DX003 (sc), vehicle: saline).
On to `Cc1cc(N(CCOS(C)(=O)=O)CCOS(C)(=O)=O)ccc1C=Nc1ccc(-c2nc(Cc3ccccc3)sc2C)cc1`, for which the T/C (dose: 50.0 mg/kg/injection, schedule: Q01DX010 (sc), vehicle: Klucel (hydroxypropylcellulose) (HPC)) is 12 % of control and 26 % of control; the T/C under setting [3] was 5 % of control (2×) and 11 % of control; the T/C (dose: 200.0 mg/kg/injection, schedule: Q01DX010 (sc), vehicle: Klucel (hydroxypropylcellulose) (HPC)) is 1 % of control; the T/C (dose: 400.0 mg/kg/injection, schedule: Q01DX010 (sc), vehicle: Klucel (hydroxypropylcellulose) (HPC)) was 1 % of control.
Consider `CCC1CN2C(=N1)c1ccccc1-c1cc(Cl)ccc12` (stereo not given), for which the T/C is 54 % of control (dose: 12.5 mg/kg/injection, schedule: Q01DX010 (sc), vehicle: saline with Tween-80); 60 % of control (dose: 25.0 mg/kg/injection, schedule: Q01DX010 (sc), vehicle: saline with Tween-80); 107 % of control (dose: 50.0 mg/kg/injection, schedule: Q01DX010 (sc), vehicle: saline with Tween-80).
As for `CS(=O)(=O)OCCCNCCCOS(C)(=O)=O`, where the note is “dose: 75.0 mg/kg/injection, schedule: Q04DX003 (sc), vehicle: saline”, the T/C is 71 % of control.
Take `Cc1oc2c(C)c3oc(=O)cc(C)c3cc2c1CCl`: the T/C is 82 % of control (dose: 150.0 mg/kg/injection, schedule: Q04DX003 (sc), vehicle: saline with Tween-80); 95 % of control under setting [4]; 60 % of control under setting [5]; 76 % of control under setting [6].
Take `[O-][n+]1c(CN2CCCCC2)nc2cccc3c2c1-c1ccccc1-3`: the T/C runs as follows: under setting [4], 82 % of control; under setting [5], 68 % of control; under setting [6], 77 % of control; (dose: 2400.0 mg/kg/injection, schedule: Q04DX003 (sc), vehicle: saline with Tween-80) 109 % of control.
In the case of `Cc1ccc(S(=O)(=O)N/N=C/C(Br)=C(/Br)C(=O)O)cc1`, the T/C was 66 % of control under setting [1]; 58 % of control (dose: 300.0 mg/kg/injection, schedule: Q04DX003 (sc), vehicle: Klucel (hydroxypropylcellulose) (HPC)); 43 % of control under setting [2].
On to `NC(=O)c1ncn2c(=O)n(CCCl)nnc12`, for which the T/C (dose: 12.5 mg/kg/injection, schedule: Q04DX003 (sc), vehicle: saline) was 56 % of control and 64 % of control; the T/C (dose: 12.5 mg/kg/injection, schedule: Q04DX003 (sc), vehicle: suspension in saline) was 80 % of control; the T/C (dose: 25.0 mg/kg/injection, schedule: Q04DX003 (sc), vehicle: saline) is 23 % of control and 40 % of control; the T/C (dose: 25.0 mg/kg/injection, schedule: Q04DX003 (sc), vehicle: suspension in saline) was 49 % of control; the T/C (dose: 50.0 mg/kg/injection, schedule: Q04DX003 (sc), vehicle: saline) was 3 % of control and 19 % of control; the T/C (dose: 50.0 mg/kg/injection, schedule: Q04DX003 (sc), vehicle: suspension in saline) was 18 % of control. For the same compound, where the note is “dose: 100.0 mg/kg/injection, schedule: Q04DX003 (sc), vehicle: saline”, the T/C was 7 % of control.
For `O=C(O)CC(=O)O.[NH-]CC[NH-].[Pt+2]`, the T/C is, setting by setting: (dose: 12.5 mg/kg/injection, schedule: Q01DX010 (sc), vehicle: dextrose) 100 % of control; (dose: 25.0 mg/kg/injection, schedule: Q01DX010 (sc), vehicle: dextrose) 74 % of control; (dose: 50.0 mg/kg/injection, schedule: Q01DX010 (sc), vehicle: dextrose) 74 % of control.
Take `CCCCCCCCC(C)C(=O)N1CCCC1C(=O)N1C(CC(=O)CC)CC(C)CC1C(=O)NC(C)C(=O)NC(C)(C)C(=O)NC(C)(C)C(=O)NC(C(=O)NC(C)C(=O)NC(C)(C)C(=O)NC(C)(C)C(=O)NC(C)CN(C)CCO)C(C)CC` (stereo not given) (X1-P[X2]A[Aib][Aib]IA[Aib][Aib]-X3; configuration not given here): where the note is “dose: 5.0 mg/kg/injection, schedule: Q04DX003 (sc), vehicle: Klucel (hydroxypropylcellulose) (HPC)”, the T/C is 270 % of control.
